Data reported in US20200138750A1, “Use of Mustard Seed Oil (Allyl Isothiocyanate) to relieve headache pain” (priority 2018, published 2020).

Test system: users suffering with headaches
Assay: Inhalation of pure AITC vapor through the nostrils by users with headaches
Assay type: in vivo
Description: In the present invention AITC is taken in to its purest form. To treat headache instantly, Purest AITC needs to be inhaled deeply for up to 5 seconds in each nostril. If it is taken correctly, due to its pungency and potency, the vapor of AITC will instantly felt inside on the top of the crown of the user's head.
If AITC is inhaled properly and as directed, most users will be out of irritation in less than 2 minutes.
In current studies we have used pure AITC in above mentioned quantity into small dark thick glass vials with aluminum seal and tight screw caps. The bottles are also very small mouth.

C=CCN=C=S [AITC, Allyl isothiocyanate]
time until users are out of irritation after inhalation (AITC inhaled properly and as directed, most users): less than 2 minutes
nasal mucus, sinus pressure and sinus headache (inhalation): relives sinusitis pressure and sinus headaches
addiction or rebound headaches (inhalation remedy): does not lead to addiction or rebound headaches
side effects (inhalation remedy): does not have any side effects
headache relief (inhalation, users with headaches): headache is also relieved
irritation and lachrymal effect on deep inhalation (inhaled deeply): instantly irritated and most likely get tears from eyes
natural versus synthetic AITC in treating headaches (natural (from mustard seeds, horseradish or wasabi) vs synthetic (99.9% pure)): almost same result in treating headaches
time to relief from headache pain (pure AITC inhaled as directed, most users suffering with headaches): relived from pain in seconds in most cases or up to couple of minutes
